Test system: TDP-43 aggregation in PC12 cells stably expressing GFP-tagged mutant TDP-43 (TDP-43^Q33IK::eGFP)
Assay: In vitro efficacy assay: inhibition of TDP-43 inclusions, concentration-response, fluorescence microscopy
Format: cell-based
Conditions: Rattus norvegicus, PC-12, PC12 cells, 1 hour pre-treatment, 15 μM sodium arsenite for 23 hours, 10-point dose response curve
Procedure, shortened: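 PC12 cells stably expressing TDP-43^Q33IK::eGFP pre-treated 1 h with compound, then stressed with 15 μM sodium arsenite for 23 h. Fluorescence microscopy gave the fraction of GFP-positive cells bearing aggregates; IC50 from concentration-response, reported in bins: A <100 nM, B 100–500 nM, C 500 nM–2 μM, D >2 μM.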

IC50 | SMILES
> 2000 nM | CCN(C(=O)c1nc2ccccc2[nH]1)[C@@]1(C)CCC[C@@H](NCc2ccccc2)C1 [Compound 555, N-((1S,3R)-3-(benzylamino)-1-methylcyclohexyl)-N-ethyl-1H-benzo[d]imidazole-2-carboxamide]
> 2000 nM | CCN(C(=O)c1nc2cc(F)ccc2[nH]1)[C@@]1(C)CCC[C@@H](NCc2ccccc2)C1 [Compound 556, N-((1S,3R)-3-(benzylamino)-1-methylcyclohexyl)-N-ethyl-5-fluoro-1H-benzo[d]imidazole-2-carboxamide]
< 100 nM | C#CCOc1ccc(CN[C@@H]2CCC[C@H](N(CC)C(=O)c3nc4cc(N=[N+]=[N-])ccc4[nH]3)C2)cc1 [Compound 557, 5-azido-N-ethyl-N-((1S,3R)-3-((4-(prop-2-yn-1-yloxy)benzyl)amino)cyclohexyl)-1H-benzo[d]imidazole-2-carboxamide]
< 100 nM | C#CCOc1cccc(CN[C@@H]2CCC[C@H](N(CC)C(=O)c3nc4c(N=[N+]=[N-])cccc4[nH]3)C2)c1 [Compound 560]
< 100 nM | C#CCOc1ccc(CN[C@@H]2CCC[C@H](N(CC)C(=O)c3nc4cc([N+](=O)[O-])ccc4[nH]3)C2)cc1 [Compound 561, N-ethyl-5-nitro-N-((1S,3R)-3-((4-(prop-2-yn-1-yloxy)benzyl)amino)cyclohexyl)-1H-benzo[d]imidazole-2-carboxamide]
500 to 2000 nM | C#CCOc1ccc(CN[C@@H]2CCC[C@H](N(CC)C(=O)c3nc4cc(N)ccc4[nH]3)C2)cc1 [Compound 562, 5-amino-N-ethyl-N-((1S,3R)-3-((4-(prop-2-yn-1-yloxy)benzyl)amino)cyclohexyl)-1H-benzo[d]imidazole-2-carboxamide]
< 100 nM | C#CCOc1cccc(CN[C@@H]2CCC[C@H](N(CC)C(=O)c3nc4cc([N+](=O)[O-])ccc4[nH]3)C2)c1 [Compound 563]
100 to 500 nM | C#CCOc1cccc(CN[C@@H]2CCC[C@H](N(CC)C(=O)c3nc4cc(N)ccc4[nH]3)C2)c1 [Compound 564]
< 100 nM | C#CCOc1ccc(CN[C@@H]2CCC[C@H](N(CC)C(=O)c3nc4c([N+](=O)[O-])cccc4[nH]3)C2)cc1 [Compound 565]
< 100 nM | C#CCOc1cccc(CN[C@@H]2CCC[C@H](N(CC)C(=O)c3nc4c([N+](=O)[O-])cccc4[nH]3)C2)c1 [Compound 566]
< 100 nM | C#CCOc1ccc(CN[C@@H]2CCC[C@H](N(CC)C(=O)c3nc4c(N)cccc4[nH]3)C2)cc1 [Compound 567]
< 100 nM | C#CCOc1cccc(CN[C@@H]2CCC[C@H](N(CC)C(=O)c3nc4c(N)cccc4[nH]3)C2)c1 [Compound 568]
< 100 nM | CCN(C(=O)c1nc2cc(F)ccc2[nH]1)[C@H]1CCC[C@@H](NCc2oc3ccccc3c2C#N)C1 [compound 510]

— patent US11542233B2, “Compounds, compositions and methods of use” (Aquinnah Pharmaceuticals, Inc., priority 2016, dated 2023)
